The values that follow come from patent US20230241121A1, “COMPOSITIONS AND METHODS RELATING TO EXOSOMES DERIVED FROM HUMAN DERMAL PAPILLA CELLS” (NORTH CAROLINA STATE UNIVERSITY, priority 2020, published 2023).

Each structure is given as a SMILES string.

For one experiment, the system named is β-catenin. Description: Immunostaining of β-catenin in dorsal skin hair follicles ten days after treatment. In kind it is in vivo, C57BL/6 mice. To be noted: treated side, day 10.
The subject of a further experiment is Ki67. Description: Immunostaining of Ki67 in dorsal skin hair follicles ten days after treatment. Type of experiment: in vivo, C57BL/6 mice. The settings on record: day 10.
In the next experiment the test system is CD133. Description: Immunostaining of CD133 in dorsal skin hair follicles ten days after treatment. Type of experiment: in vivo, C57BL/6 mice. The settings on record: treated side, day 10.
A further experiment has as its system depilated C57BL/6 mice. Description: Dorsal hair regrowth in depilated mice. In kind it is in vivo. An excerpt:
Animals and in vivo studies. Seven-week-old male C57BL/6 mice were purchased from Jackson laboratory and allowed to adapt to their new environment for 1 week. Hair was removed by using depilatory cream to observe the pink skin. Then, animals were randomly divided into groups (n=5) randomly to investigate hair regrowth. Minoxidil was topically applied daily as a positive control. Other treatments were given subcutaneously. All work with mice was in accordance with IACUC. Cell treatment dose: 1.0×10^6 cells in 200 μL PBS were subcutaneously injected into 10 spots (20 μL per site) on the left side of the dorsal skin. Exosome treatment dose: 2.0×10^9 exosomes in 200 μL PBS were subcutaneously injected to 10 spots (20 μL per site) on the left side of the backs. Negative control, miR-218-5p mimics and inhibitors (Sigma-Aldrich): administered according to the protocol provided by in vivo-jetPEI™ (Polyplus transfection). In brief, mice received ten injections per depilated dorsal skin. 400 ng miRNA mimic or inhibitor was dissolved in 90 μl 5% glucose (w/v) solution, and then 10 μl in vivo-jet PEI solution was added. Vortex-mix the solution immediately and incubate for 15 minutes at room temperature before injection. […]
The state of hair re-growth in depilated mice was photographed on days 0, 10, 15, and 20, and hair growth area was analyzed via morphological observation (FIGS. 3A-3D). […]

Description for CD133: (§1) Animals and in vivo studies. Seven-week-old male C57BL/6 mice were purchased from Jackson laboratory and allowed to adapt to their new environment for 1 week. Hair was removed by using depilatory cream to observe the pink skin. Then, animals were randomly divided into groups (n=5) randomly to investigate hair regrowth. Minoxidil was topically applied daily as a positive control. Other treatments were given subcutaneously. All work with mice was in accordance with IACUC. Cell treatment dose: 1.0×10^6 cells in 200 μL PBS were subcutaneously injected into 10 spots (20 μL per site) on the left side of the dorsal skin. Exosome treatment dose: 2.0×10^9 exosomes in 200 μL PBS were subcutaneously injected to 10 spots (20 μL per site) on the left side of the backs. Negative control, miR-218-5p mimics and inhibitors (Sigma-Aldrich): administered according to the protocol provided by in vivo-jetPEI™ (Polyplus transfection). In brief, mice received ten injections per depilated dorsal skin. 400 ng miRNA mimic or inhibitor was dissolved in 90 μl 5% glucose (w/v) solution, and then 10 μl in vivo-jet PEI solution was added. Vortex-mix the solution immediately and incubate for 15 minutes at room temperature before injection. Control groups were injected with mimic control.
(§2) Skin tissue histology. Mice were euthanized and the whole dorsal skin was removed. […]
Description for Ki67: as §1, §2
Description for β-catenin: as §1, §2

`Nc1cc(N2CCCCC2)nc(N)[n+]1[O-]` [5% minoxidil, minoxidil]: the “expression of β-catenin (β-catenin positive cells)” value in the experiment with β-catenin is 2.3%. The Ki67 signals came to 7.1% with Ki67 (non-treated side) and 37.2% in the experiment with Ki67 (treated side). In the experiment on CD133, the “expression of CD133 (CD133 positive cells)” value is listed as 7.2%. Further, the fur coverage was determined as 35% in the experiment with depilated C57BL/6 mice (day 15, treated side) and 10% with depilated C57BL/6 mice (day 15, untreated side).
